Experimental data published in ChEMBL document CHEMBL1139630, “Structure-activity relationship of N-methyl-bisindolylmaleimide derivatives as cell death inhibitors” (Bioorg Med Chem Lett, 2005).

Legend:
[1] = target: Ribosomal protein S6 kinase alpha-3 (Homo sapiens) (UniProt P51812); experiment: Residual activity of Ribosomal S6 kinase 2 (RSK2) at 1 uM
[2] = target: T1, AMP-activated protein kinase, AMPK (Homo sapiens) (UniProt P54646+O43741+P54619+Q9UGJ0+Q9Y478+Q13131+Q9UGI9); experiment: Residual activity of AMP-activated Protein Kinase (AMPK) at 1 uM
[3] = target: T2, Ribosomal protein S6 kinase beta-1 (Homo sapiens, UniProt P23443); experiment: Inhibition of Ribosomal protein S6 kinase 1 (S6K1)
Target sequence in this assay (P23443 whole entry): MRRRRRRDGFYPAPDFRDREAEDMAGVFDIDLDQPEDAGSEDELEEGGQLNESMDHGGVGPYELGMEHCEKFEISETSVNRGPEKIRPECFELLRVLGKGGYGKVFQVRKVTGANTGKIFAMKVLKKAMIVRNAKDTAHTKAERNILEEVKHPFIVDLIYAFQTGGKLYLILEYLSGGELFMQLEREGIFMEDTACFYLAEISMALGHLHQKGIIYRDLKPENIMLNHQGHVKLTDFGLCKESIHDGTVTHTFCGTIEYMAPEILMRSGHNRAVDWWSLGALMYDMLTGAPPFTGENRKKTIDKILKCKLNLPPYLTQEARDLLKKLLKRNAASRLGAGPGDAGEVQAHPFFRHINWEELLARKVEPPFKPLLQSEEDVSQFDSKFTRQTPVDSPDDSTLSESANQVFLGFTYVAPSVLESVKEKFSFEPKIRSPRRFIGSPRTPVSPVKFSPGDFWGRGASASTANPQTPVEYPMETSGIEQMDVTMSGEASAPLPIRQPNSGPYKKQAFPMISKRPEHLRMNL

[4] = target: T2, Ribosomal protein S6 kinase beta-1; conditions: 50 uM
Target sequence in this assay (P23443 whole entry, looked up): as the sequence (P23443 whole entry) above
Description: Inhibition of Ribosomal protein S6 kinase 1 (S6K1) at 50 uM

[5] = target: Ribosomal protein S6 kinase alpha-5 (Homo sapiens) (UniProt O75582); experiment: Residual activity of MSK-1 kinase (MSK1) at 50 uM
[6] = target: Ribosomal protein S6 kinase alpha-3 (Homo sapiens) (UniProt P51812); experiment: Residual activity of Ribosomal S6 kinase 2 (RSK2) at 50 uM
[7] = target: Protein kinase C alpha type (Homo sapiens) (UniProt P17252); experiment: Residual activity of Protein kinase C alpha (PKCalpha) at 50 uM
[8] = target: T1, AMP-activated protein kinase, AMPK (Homo sapiens); experiment: Residual activity of AMP-activated Protein Kinase (AMPK) at 50 uM
[9] = target: Glycogen synthase kinase-3 beta (Homo sapiens) (UniProt P49841); experiment: Residual activity of Glycogen synthase kinase-3 beta (GSK3-beta) at 50 uM
[10] = target: T3, Serine/threonine-protein kinase Chk1 (Homo sapiens) (UniProt O14757); experiment: Residual activity of Serine/threonine-protein kinase Chk1 (CHK1) at 50 uM
T3 sequence (whole entry): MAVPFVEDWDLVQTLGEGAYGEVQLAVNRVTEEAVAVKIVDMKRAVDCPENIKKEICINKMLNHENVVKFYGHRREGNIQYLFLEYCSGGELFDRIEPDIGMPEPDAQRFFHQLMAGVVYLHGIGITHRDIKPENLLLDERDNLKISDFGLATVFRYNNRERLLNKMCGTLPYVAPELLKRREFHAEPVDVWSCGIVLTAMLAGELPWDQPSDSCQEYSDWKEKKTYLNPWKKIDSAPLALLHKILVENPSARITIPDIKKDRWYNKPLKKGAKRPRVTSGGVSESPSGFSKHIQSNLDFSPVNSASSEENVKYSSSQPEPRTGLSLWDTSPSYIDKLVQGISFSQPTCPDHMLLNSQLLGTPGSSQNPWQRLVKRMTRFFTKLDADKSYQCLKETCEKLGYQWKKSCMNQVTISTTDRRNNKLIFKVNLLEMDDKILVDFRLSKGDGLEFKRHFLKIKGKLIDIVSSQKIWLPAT

[11] = target: T4, Serine/threonine-protein kinase Sgk1 (Homo sapiens) (UniProt O00141); experiment: Residual activity of Serum/glucocorticoid regulated kinase (SGK) at 50 uM
T4 sequence (whole entry): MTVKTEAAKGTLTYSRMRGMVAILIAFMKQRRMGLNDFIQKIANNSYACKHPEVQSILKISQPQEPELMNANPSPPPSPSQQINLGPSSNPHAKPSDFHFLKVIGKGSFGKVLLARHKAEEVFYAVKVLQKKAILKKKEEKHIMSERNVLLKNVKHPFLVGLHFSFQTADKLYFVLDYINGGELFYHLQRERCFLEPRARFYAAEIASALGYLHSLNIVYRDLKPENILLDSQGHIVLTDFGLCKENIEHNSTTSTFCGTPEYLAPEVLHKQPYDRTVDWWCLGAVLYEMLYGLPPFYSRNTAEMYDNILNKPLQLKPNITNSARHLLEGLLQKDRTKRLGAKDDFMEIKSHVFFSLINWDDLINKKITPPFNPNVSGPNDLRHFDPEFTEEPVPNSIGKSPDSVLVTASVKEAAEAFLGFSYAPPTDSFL

Sequence of Ribosomal protein S6 kinase alpha-3 (Homo sapiens) (P51812 whole entry): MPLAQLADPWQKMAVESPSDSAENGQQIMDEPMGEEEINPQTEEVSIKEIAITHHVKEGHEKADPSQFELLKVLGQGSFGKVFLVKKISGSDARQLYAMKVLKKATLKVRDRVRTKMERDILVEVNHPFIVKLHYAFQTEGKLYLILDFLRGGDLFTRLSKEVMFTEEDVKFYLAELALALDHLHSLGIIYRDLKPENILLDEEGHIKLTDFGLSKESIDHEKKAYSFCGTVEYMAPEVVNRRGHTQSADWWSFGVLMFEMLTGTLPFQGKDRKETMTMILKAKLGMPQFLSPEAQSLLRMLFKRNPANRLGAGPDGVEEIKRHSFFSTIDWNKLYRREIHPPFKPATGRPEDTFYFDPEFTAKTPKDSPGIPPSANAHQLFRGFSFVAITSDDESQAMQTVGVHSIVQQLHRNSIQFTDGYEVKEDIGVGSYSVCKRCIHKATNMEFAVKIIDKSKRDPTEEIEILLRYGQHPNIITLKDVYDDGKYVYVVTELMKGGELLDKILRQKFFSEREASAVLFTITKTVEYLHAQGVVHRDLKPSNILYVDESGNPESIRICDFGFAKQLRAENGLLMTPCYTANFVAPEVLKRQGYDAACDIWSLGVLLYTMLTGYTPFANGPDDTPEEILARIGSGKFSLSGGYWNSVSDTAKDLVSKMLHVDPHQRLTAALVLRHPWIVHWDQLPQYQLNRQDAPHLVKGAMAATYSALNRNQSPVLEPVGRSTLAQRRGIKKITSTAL
Sequence of Ribosomal protein S6 kinase alpha-5 (Homo sapiens) (O75582 whole entry, looked up): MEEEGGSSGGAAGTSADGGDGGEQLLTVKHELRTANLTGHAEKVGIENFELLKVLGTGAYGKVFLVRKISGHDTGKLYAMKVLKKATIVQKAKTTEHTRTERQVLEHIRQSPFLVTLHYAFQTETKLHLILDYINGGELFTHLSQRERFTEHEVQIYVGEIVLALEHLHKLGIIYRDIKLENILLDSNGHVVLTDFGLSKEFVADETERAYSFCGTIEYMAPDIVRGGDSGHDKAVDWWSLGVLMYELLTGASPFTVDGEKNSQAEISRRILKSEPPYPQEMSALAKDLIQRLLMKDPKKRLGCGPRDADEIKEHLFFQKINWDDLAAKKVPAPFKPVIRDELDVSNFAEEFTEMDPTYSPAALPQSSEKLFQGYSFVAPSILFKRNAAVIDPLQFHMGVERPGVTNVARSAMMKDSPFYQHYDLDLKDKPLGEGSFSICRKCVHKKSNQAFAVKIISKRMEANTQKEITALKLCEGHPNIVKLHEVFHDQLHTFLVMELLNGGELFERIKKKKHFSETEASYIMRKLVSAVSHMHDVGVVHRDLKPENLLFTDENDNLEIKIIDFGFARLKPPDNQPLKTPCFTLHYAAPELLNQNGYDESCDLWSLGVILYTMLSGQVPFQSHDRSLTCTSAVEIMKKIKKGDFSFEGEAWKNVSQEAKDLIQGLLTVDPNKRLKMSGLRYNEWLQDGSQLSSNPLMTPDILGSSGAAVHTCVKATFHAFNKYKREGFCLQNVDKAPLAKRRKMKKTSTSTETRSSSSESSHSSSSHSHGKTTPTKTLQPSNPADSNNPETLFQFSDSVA
Sequence of Glycogen synthase kinase-3 beta (Homo sapiens) (P49841 whole entry, looked up): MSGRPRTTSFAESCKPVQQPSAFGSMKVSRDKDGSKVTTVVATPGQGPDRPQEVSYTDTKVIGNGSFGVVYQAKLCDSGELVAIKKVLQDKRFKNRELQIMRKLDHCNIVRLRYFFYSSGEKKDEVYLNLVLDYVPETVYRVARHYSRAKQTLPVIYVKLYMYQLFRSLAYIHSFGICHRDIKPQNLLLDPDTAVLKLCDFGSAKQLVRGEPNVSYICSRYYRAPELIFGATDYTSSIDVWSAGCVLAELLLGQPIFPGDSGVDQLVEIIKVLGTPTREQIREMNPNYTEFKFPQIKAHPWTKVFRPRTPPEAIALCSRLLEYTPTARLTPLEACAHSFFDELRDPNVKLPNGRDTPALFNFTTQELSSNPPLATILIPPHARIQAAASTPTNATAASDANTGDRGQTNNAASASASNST

| residual activity [1] | residual activity [2] | IC50 [3] | residual activity [4] | residual activity [5] | residual activity [6] | residual activity [7] | residual activity [8] | residual activity [9] | residual activity [10] | residual activity [11] | Compound |
| --- | --- | --- | --- | --- | --- | --- | --- | --- | --- | --- | --- |
| 9% | 54% |  |  |  |  |  |  |  |  |  | CN(C)CCCn1cc(C2=C(c3c[nH]c4ccccc34)C(=O)NC2=O)c2ccccc21 |
|  |  | 25 µM | 28% | 90% | 106% | 66% | 88% | 94% | 93% | 109% | CN1C(=O)C(c2c[nH]c3ccccc23)=C(c2cn(CCCN)c3ccccc23)C1=O |
